Results published in patent US11136291B2, “Antifungal compounds and uses thereof” (Dana-Farber Cancer Institute, Inc., priority 2016, dated 2021).
Converted amounts (≈) assume the structure as drawn. “Also recorded” adds a separate entry of the source.

Experiments:
SREBP-target genes = test: Transcription of SREBP-target genes in HepG2 cells; assay type: cell-based, Human; details: concentrations up to 100 μM, 24 hours
Procedure: For transcription assays, HepG2 cells were seeded in MEM+10% FBS on 12-well poly-D-lysine-coated plates at a concentration of 175,000 cells per mL. After cells attached (4 hours), media was aspirated and iKIX1 was added in fresh MEM+10% FBS to final concentrations indicated. Cells were treated with iKIX1 for 24 hours before RNA was isolated using Trizol according to manufacturer's instructions. Quantitative real-time RT-PCR was carried out as described above.

[1] = test system: C. glabrata PDR1 wild-type or PDR1^L280F strains; test: Galleria mellonella survival assay; assay type: in vivo
[2] = test system: rhodamine 6G efflux in C. glabrata; test: Rhodamine 6G efflux assay; assay type: cell-based, Candida glabrata; details: PDR1 wild-type or gain-of-function strains, iKIX1 pre-treatment vs vehicle
Procedure: Cells were treated with vehicle or iKIX1 and grown with shaking for 16 hours. […] Untreated cells were placed on ice and not treated with ketoconazole or rhodamine 6G. All cells were placed on ice and washed twice with cold YP containing either 5 μM ketoconazole+vehicle (DMSO) or 5 μM ketoconazole+30 μM iKIX1 to remove excess rhodamine 6G. Cells were resuspended in room temperature YP with either 5 μM ketoconazole+vehicle (DMSO) or 5 μM ketoconazole+30 μM iKIX1 and 100 μL was transferred to a 96-well plate. An Envision 2103 Multilabel plate reader was used to assess RFU (relative fluorescence units; excitation 485, emission 535) over 60 minutes at 7.5 minute intervals. Efflux rate was calculated as RFU per second with 7.5 minute windows. Experiments were performed in triplicate, with duplicate readings for each sample; error bars indicate s.d.

[3] = test system: C. glabrata CgPDR1 wild-type and gain-of-function mutant strains; test: Spot plating on gradient plates with azole; assay type: cell-based, Candida glabrata
[4] = test system: Gal11/Med15 recruitment to Pdr1-regulated target genes; test: Chromatin immunoprecipitation (ChIP) assay; assay type: cell-based, Saccharomyces cerevisiae
Procedure: ChIP was performed according to standard procedures (see. e.g., McConnell A D, Gelbart M E, Tsukiyama T. Histone fold protein Dls1p is required for Isw2-dependent chromatin remodeling in vivo. Mol Cell Biol. 2004; 24(7):2605-13. PMCID: 371119). Briefly, cells were grown to saturation then washed 2 times with sterilized Milli-Q (Millipore) water, resuspended to an OD600 of 0.8 in YP (1% yeast extract, 2% bacto peptone) and then grown for 6 hours at 30° C. with shaking in the presence of DMSO (vehicle) or iKIX1. Cultures were induced with ketoconazole to a final concentration of 40 μM and harvested at the times indicated. 2 mL of culture was harvested at 0′ and 15′ for matched transcription samples; RNA was prepared as described below. Cells were fixed with 1% formaldehyde (final) for 15 minutes with swirling and then quenched with 125 mM glycine (final) for 5 min. with swirling. Cells were pelleted, washed with TBS+125 mM glycine and then TBS. Cells were lysed in buffer containing 50 mM HEPES, pH 7.5, 140 mM NaCl, 1% Triton X-100, 0.1% sodium deoxycholate, 1 mM EDTA and protease inhibitors and 0.5 mm glass beads. Glass beads were removed by centrifugation before cell lysate was sonicated to obtain 150 to 400 base pair fragments. […]

[5] = In vitro stability (plasma, microsomes) and in vivo mouse pharmacokinetics
Procedure: Microsome stability assays were performed as previously described (see, e.g., Choi J Y, Calvet C M, Gunatilleke S S, Ruiz C, Cameron M D, McKerrow J H, et al. Rational development of 4-aminopyridyl-based inhibitors targeting Trypanosoma cruzi CYP51 as anti-chagas agents. J Med Chem. 56(19):7651-68. PMCID: 3864028); for plasma stability, 100% freshly drawn plasma in LiHeparin was used with similar sampling and sample preparation with no addition of microsomes, buffer or NADPH.
Male Swiss albino mice were dosed via tail vein (IV; intravenous, solution in 5% NMP and 10% solutol in saline, dose: 2 mg/kg) or via oral gavage (PO; suspensions in 0.5% w/v Na CMC with 0.1% v/v Tween-80 in water). Blood and brain samples were collected at 0, 0.083 (for IV only), 0.25, 0.5, 1, 2, 4, 6 (for PO only), 8, 12, and 24 hours for the IV and PO groups. The blood samples were collected from sets of three mice at each time point. Plasma samples were separated by centrifugation and stored below −70° C. until analysis. Brain samples were homogenized using ice-cold phosphate buffer saline (pH 7.4) and homogenates were stored below −70° C. until analysis. All samples were processed and analyzed by […] (LLOQ, 2.03 ng/mL for plasma and 10.16 ng/mL for brain). Pharmacokinetic parameters were calculated using the noncompartmental analysis tool of Phoenix WinNonlin (version 5.3).

Candida glabrata DSY562 = test: Broth dilution MIC; details: Nakaseomyces glabratus
Procedure: (§1) Antifungal susceptibility testing was carried out using broth dilution assays which examined effects of two-fold dilutions of compounds on cellular growth. The minimum inhibitory concentration (MIC) was defined as the drug concentration at which the optical density was equal to or decreased more than 50% from that of the drug-free culture.

Candida albicans SC5314 = test: Broth dilution MIC
Procedure: as §1

Candida albicans DSY2621 = test: Broth dilution MIC
Procedure: as §1

Candida krusei DSY471 = test: Broth dilution MIC; details: Pichia kudriavzevii, ATCC6258
Procedure: as §1

[6] = test system: Candida parapsilosis DSY473; test: Broth dilution MIC; details: ATCC22019
Procedure: as §1

[7] = test system: Saccharomyces cerevisiae DSY2094; test: Broth dilution MIC
Procedure: as §1

[8] = test system: C. glabrata adherence to CHO-Lec2 cells; test: Yeast adherence to epithelial CHO-Lec2 cells; details: PDR1^L280F mutant; 30 μM iKIX1 or 40 μM ketoconazole
S. cerevisiae = test: Cell growth inhibition screen with 5 μM ketoconazole; details: in the presence of 5 μM ketoconazole
Procedure: S. cerevisiae SEY6210 wild-type strains were grown in YPD (U % yeast extract, 2% bacto peptone, 2% dextrose) at 30° C. with shaking overnight until saturation. The next day, cultures were inoculated to an OD600 of 0.0007 and grown for 17 hours, to an OD600˜0.5, 384-well plates were set up in duplicate with either YPD alone or with YPD containing a final concentration of 5 μM ketoconazole. 384-well plates contained 5 two-fold dilutions of each compound, corresponding to a final concentration range of 20 μg/mL to 1.25 μg/mL. Wells were inoculated with cells to a final OD600 of 0.00025 in YPD.

N#CCC(=O)NNC(=S)Nc1ccc(Cl)c(Cl)c1 [iKIX1, 2-(2-Cyanoacetyl)-N-(3,4-dichlorophenyl)hydrazinecarbothioamide]
effect on transcription of SREBP-target genes (SREBP-target genes): no effect
survival of G. mellonella larvae ([1]; […], fluconazole-iKIX1 combination): no significant alterations in survival
survival of G. mellonella larvae ([1]; […], single agent (fluconazole 50 mg/kg or iKIX1 25 mg/kg) vs vehicle): did not significantly increase survival
survival of G. mellonella larvae ([1]; in vivo): significantly increased survival
maximum rhodamine 6G efflux rates [2]: Maximum efflux rates were significantly decreased
azole sensitivity of growth on gradient plates ([3]; CgPDR1 gain-of-function mutant strains, compound gradient with fluconazole or ketoconazole): restored azole-sensitivity to PDR1 gain-of-function mutant strains in a concentration-dependent manner
growth inhibition on gradient plates ([3]; CgPDR1 wild-type strains, iKIX1 with azole vs single agents): increased growth inhibition
constitutive occupancy of Pdr1 at Pdr1-regulated target genes ([4]; 20 μM iKIX1): did not impede the constitutive occupancy of Pdr1
ketoconazole-induced recruitment of Gal11/Med15 to promoters of PDR5 and SNQ2 ([4]; iKIX1 pre-treatment): ketoconazole-induced recruitment of Gal11/Med15 was abrogated
in vitro stability and in vivo mouse pharmacokinetics (in words) [5]: favorable drug-like properties and in vivo exposure
MIC (Candida glabrata DSY562): 12.5 µM (≈ 3.79 µg/mL)
MIC (Candida albicans SC5314): 12.5 µM (≈ 3.79 µg/mL)
MIC (Candida albicans DSY2621): 12.5 µM (≈ 3.79 µg/mL)
MIC (Candida krusei DSY471): 6.25 µM (≈ 1.89 µg/mL)
MIC [6]: 25 µM (≈ 7.58 µg/mL)
MIC [7]: 12.5 µM (≈ 3.79 µg/mL)
relative adherence to epithelial cells [8]: reduce adherence; also recorded: reduced adherence to levels similar to a PDR1 wild-type strain
cell growth (S. cerevisiae): inhibits cell growth in a concentration-dependent manner
